Columns and labels:
[1] = system: animal models of depression; conditions: cited from earlier work
[2] = system: human peripheral blood lymphocytes (HPBL)
Experimental: The study was conducted in 2 phases, with a preliminary toxicity test used to determine the appropriate concentrations for the definitive chromosomal aberration assay. Water was used as a negative (vehicle) control. In both phases, the cells were treated for 3 and 21 hours in the absence of S9 mix and for 3 hours in the presence of S9 mix. The mitotic index was assessed for all cultures to determine cytotoxicity. Ten concentrations, ranging from 2.62 to 260.16 μg/mL, were evaluated in the preliminary toxicity test. […] S-Norketamine concentrations of 93.66, 156.10 or 260.16 μg/mL were selected for metaphase analysis.

[3] = system: human peripheral blood lymphocytes (HPBL); remark: listed apart in the source
Experimental: The clastogenic potential of esketamine was evaluated in the in vitro mammalian chromosome aberration test using human peripheral blood lymphocytes (HPBL) in both the absence and presence of an induced metabolic activation system (the 9000 g supernatant [S9] microsomal fraction of liver homogenate from rats exposed to Aroclor-1254).
The study was conducted in 2 phases, with a preliminary toxicity test used to determine the appropriate concentrations for the definitive chromosomal aberration assay. Water was used as a negative (vehicle) control. Toxicity (defined as ≥45% reduction in MI relative to the vehicle control) was evaluated at 9 concentrations, ranging from 0.0238 to 238 μg/ml, after exposure of HPBL to esketamine for 20 hours in the absence of S9 activation, or for 4 hours, either in the presence or absence of S9 activation, followed by a 16-hour recovery period.
The definitive chromosome aberration assay evaluated HPBL cells after exposure to esketamine for 20 hours in the absence of S9 activation, or for 4 hours, either in the presence of absence of S9 activation, followed by a 16-hour recovery. Positive controls for chromosomal aberrations in non-activated and S9-activated evaluations, respectively, consisted of mitomycin C (MMC, 0.6 and 0.3 μg/mL for the 4- and 20-hour exposures, respectively) and cyclophosphamide (CP, 2.5, 5, and 7.5 μg/mL). […] Initially, the doses selected for evaluation of chromosomal aberrations were 60, 120, and 238 μg/mL for the non-activated 4- and 20-hour treatment conditions; and 30, 60, and 200 μg/mL for the S9-activated 4-hour treatment condition.

[4] = Repeated dose 28 day study, toxicokinetics; conditions: male rats, Day 28
Experimental: The objective of the study was to assess the potential toxicity, neurobehavioral effects, and toxicokinetics (TK) of esketamine when administered orally, via gavage, to Sprague Dawley rats for 28 days and to evaluate recovery during a 14-day drug-free period. Fifty male and 50 female rats were randomized into 4 groups (15/sex/Groups 1 and 4; 10/sex/Groups 2 and 3). Esketamine was administered via oral gavage once daily for 28 consecutive days to males at 0 (vehicle control), 6, 10 or 30 mg/kg/day and females at 0 (vehicle control), 2, 10 or 20 mg/kg/day in a dose volume of 10 mL/kg. Animals were observed until euthanized and necropsied on Day 29 (10/sex/group) or 43 (5/sex from Groups 1 and 4). Toxicity was evaluated based on mortality, clinical observations, body weights, food consumption, ophthalmology, motor activity, functional observational battery, clinical pathology (clinical chemistry, hematology, coagulation and urinalysis), organ weights, anatomic (macroscopic or microscopic) pathology. Toxicokinetic animals (3/sex/Group 1; 6/sex/Groups 2, 3, and 4) were similarly dosed and bled on Day 1 and during Week 4 for toxicokinetic analysis.

[5] = Single dose, randomized, open-label crossover study, pharmacokinetics; conditions: esketamine hydrochloride, 15 subjects
Description: A randomized, open-label 4-way crossover study in 16 healthy male and female subjects was held wherein said subjects were placed in a randomly assigned order and administered esketamine. Each subject was assigned to 1 of 4 treatment sequences according to a randomization code such that 4 subjects were assigned to each treatment sequence. There was a wash-out period of at least 7 days between dosing periods with dosing consisting of either oral or intravenous esketamine hydrochloride. The study consisted of an eligibility screening period of 28 days, 4 study periods involving administration of a single dose of esketamine hydrochloride followed by safety assessments with blood sampling for PK purposes up to 72 hours after study drug administration, discharge at 72 hours after study drug administration and a follow-up visit 7-14 days after the last PK blood sample was taken on Day 4.

liver of Crl:CD(SD) rats = test: In vivo single cell gel electrophoresis (comet) assay, DNA strand breaks in the liver

Compound: CN[C@@]1(c2ccccc2Cl)CCCCC1=O [(R)-ketamine, (2R)-2-(2-Chlorophenyl)-2-(methylamino) cyclohexanone]
- psychotomimetic side effects and abuse liability [1]: without psychotomimetic side effects and abuse liability

Compound: N[C@]1(c2ccccc2Cl)CCCCC1=O [S-norketamine]
- Toxicity (mitotic index) [2]: not observed at any dose
- induction of structural and numerical chromosomal aberrations [2]: negative

Compound: O=P1(N(CCCl)CCCl)NCCCO1 (stereo not shown) [CP, cyclophosphamide]
- structural aberrations, % of the cells ([3]; S9-activated system, positive control 2.5, 5 and 7.5 μg/mL): 10.7%

Compound: CN[C@]1(c2ccccc2Cl)CCCCC1=O [esketamine, (2S)-2-(2-Chlorophenyl)-2-(methylamino) cyclohexanone]
- t1/2 ([4]; 10 mg/kg oral gavage): 0.6 h
- AUC0-t ([4]; 30 mg/kg oral gavage): 575 ng·h/mL
- AUC0-inf, Geometric mean ([5]; 0.3 mg/kg iv): 257.14 ng·h/mL
- AUC0-t, Geometric mean ([5]; 0.3 mg/kg iv): 249.15 ng·h/mL
- Cmax, Geometric mean ([5]; 0.3 mg/kg iv): 94.50 ng/mL
- t1/2, Geometric mean ([5]; 0.3 mg/kg iv): 10.16 h
- tmax, Median ([5]; 0.3 mg/kg iv): 1.00 h
- AUC0-inf, Geometric mean ([5]; 20 mg oral solution): 25.82 ng·h/mL
- AUC0-t, Geometric mean ([5]; 20 mg oral solution): 23.44 ng·h/mL
- Cmax, Geometric mean ([5]; 20 mg oral solution): 16.48 ng/mL
- t1/2, Geometric mean ([5]; 20 mg oral solution): 2.91 h
- tmax, Median ([5]; 20 mg oral solution): 0.50 h
- AUC0-inf, Geometric mean ([5]; 20 mg oral tablet): 22.46 ng·h/mL
- AUC0-t, Geometric mean ([5]; 20 mg oral tablet): 20.05 ng·h/mL
- tmax, Median ([5]; 20 mg oral tablet): 0.75 h
- t1/2, Geometric mean ([5]; 20 mg oral): 2.84 h
- AUC0-inf, Geometric mean ([5]; 100 mg oral tablet): 180.84 ng·h/mL
- AUC0-t, Geometric mean ([5]; 100 mg oral tablet): 172.71 ng·h/mL
- Cmax, Geometric mean ([5]; 100 mg oral tablet): 65.34 ng/mL
- tmax, Median ([5]; 100 mg oral tablet): 0.75 h
- t1/2, Geometric mean ([5]; 100 mg oral): 7.66 h
- Toxicity (≥45% reduction in MI relative to the vehicle control) [3]: not observed at any dose
- doses at which cytotoxicity (≥45% reduction in mitotic index) was observed ([3]; human): ≥ 200 µg/mL
- median % TI in the liver vs vehicle control (liver of Crl:CD(SD) rats; female rats, 25 and 50 mg/kg/day oral gavage, three doses, p<0.001): Statistically significant increases
- DNA strand breaks in the liver (study conclusion) (liver of Crl:CD(SD) rats; male and female rats, oral gavage): evidence of causing an increase in DNA strand breaks
- median % tail intensity (TI) in the liver vs vehicle control (liver of Crl:CD(SD) rats; male rats, 75 mg/kg/day oral gavage, three doses, p<0.001): Statistically significant increases
- macroscopic examination after 3 doses (liver of Crl:CD(SD) rats; rat, in vivo): no test item related lesions

— patent publication US12036189B2, “Method of treating major depressive disorder” (priority 2018, dated 2024)
